Source: PubChem BioAssay AID1996
In brackets after ≈: the same amount, converted by molar mass.

Conditions: buffer; pH 7.4; 200.0 µM

SMILES | solubility kinetic
CCn1c(=O)c(C(=O)CC#N)c(N)n(Cc2ccccc2)c1=O | 4.1 µg/mL (≈ 13.1 µM)
O=C(NCc1ccco1)c1ccc(Cl)cc1[N+](=O)[O-] | > 42.1 µg/mL
CCc1ccccc1N1CC(C(=O)Nc2nccs2)CC1=O (stereo not given) | 45.2 µg/mL (≈ 143 µM)
CN(c1ccccc1)c1nc(N)c([N+](=O)[O-])c(N2CCCCCC2)n1 | 2.6 µg/mL (≈ 7.59 µM)
CNC(=S)N1CCC(c2nc3ccccc3s2)CC1 | > 43.7 µg/mL
Cc1cc(C)c2nc(SCC(=O)Nc3cc(C)on3)c(C)cc2c1 | 0.3 µg/mL (≈ 0.879 µM)
Cc1cnc(NC(=O)c2ccncc2)s1 | 30.2 µg/mL (≈ 138 µM)
CN(C(=O)CSc1cccc[n+]1[O-])C1CCCCC1 | > 42.1 µg/mL
CN(C)C(=O)c1ccc(NC(=O)COC(=O)C2(c3ccccc3)CCCC2)cc1 | 24.3 µg/mL (≈ 61.6 µM)
Cc1cc(C)c(S(=O)(=O)N2CCCCC2C(=O)O)c(C)c1 (stereo not given) | > 46.7 µg/mL
Cc1cc(OC(=O)c2ccccc2C)c([N+](=O)[O-])c(=O)[nH]1 | > 43.2 µg/mL
CC(Sc1nccn1C)C(=O)Nc1ccccc1 (stereo not given) | > 39.2 µg/mL
O=C(Nc1ccc(Cn2ccnc2)cc1)c1cccc(C(F)(F)F)c1 | 1.6 µg/mL (≈ 4.63 µM)
O=C(COC(=O)/C=C/c1ccccc1)NC1CCCC1 | 17.2 µg/mL (≈ 62.9 µM)
COc1ccc(NS(=O)(=O)c2ccc3c(c2)CCC(=O)N3)cc1O | > 52.3 µg/mL
CC(=O)Nc1ccccc1S(=O)(=O)CC1CC1(Cl)Cl (stereo not given) | > 48.3 µg/mL
O=C(CSc1ccc(Br)cc1)NC1CCCCCC1 | 3.4 µg/mL (≈ 9.93 µM)
CCOC(=O)c1cncc(C#CCO)c1 | > 30.8 µg/mL
O=C(Nc1cc2c3c(c1)CC(=O)N3CCC2)c1ccco1 | 39.6 µg/mL (≈ 140 µM)
CC(=O)c1cccc(NC(=O)CSc2nc(C3CC3)nc3ccccc23)c1 | 0.9 µg/mL (≈ 2.38 µM)

SMILES | solubility kinetic
Cc1ccc(NC(=O)CCSc2nnc(C)o2)cc1 | > 41.6 µg/mL
Cc1cc(-n2c(C)cc(C(=O)CN3C(=O)C(=O)N(C)C3=O)c2C)no1 | > 51.6 µg/mL
C#CCn1c(-c2cccs2)nc2ccccc21 | > 35.7 µg/mL
N#CC1=C(N)OC2=C(C(=O)CCC2)C1c1cc2c(cc1Cl)OCO2 (stereo not given) | 17 µg/mL (≈ 49.3 µM)
COC(=O)c1ccc(NC(=O)Nc2ccc3c(c2)OCO3)cc1 | 0.8 µg/mL (≈ 2.55 µM)
CC1CCN(Cc2cc(=O)oc3cc(O)c(Cl)cc23)CC1 | > 46.2 µg/mL
COC(=O)[C@H](Cc1ccccc1)NC(=O)NCc1ccc(C)cc1 | > 49 µg/mL
CC(=O)N1CCN(C(=O)C2CCN(S(=O)(=O)c3ccccc3C(F)(F)F)CC2)CC1 | > 67.1 µg/mL
COc1ccc2c(C)cc(SCC(=O)NC3CCCC3)nc2c1 | 6.6 µg/mL (≈ 20 µM)
Oc1ccc(-c2cnc3ccccc3n2)cc1 | 26.9 µg/mL (≈ 121 µM)
CCc1cccc(NS(=O)(=O)c2c(C)[nH]c(=O)[nH]c2=O)c1 | > 46.4 µg/mL
Cn1c(O)c(C=NCCN2CCOCC2)c(=O)[nH]c1=S | > 44.8 µg/mL
Cc1cc(OCc2cccc(Cl)c2)c(C)cc1CN1CCOCC1 | 1 µg/mL (≈ 2.89 µM)
CCOc1ncccc1C(=O)OCC(=O)c1ccccc1 | 39.9 µg/mL (≈ 140 µM)
CCc1cccc(CC)c1-n1c(SCC(=O)N2CCc3ccccc32)nc(O)cc1=O | 60 µg/mL (≈ 138 µM)
Cc1ccc(N2CCN(c3ncccc3[N+](=O)[O-])CC2)c(C)c1 | 1.4 µg/mL (≈ 4.48 µM)
Cc1ccc(NS(=O)(=O)c2ccc(Cl)nc2)c(C)c1 | > 44.5 µg/mL
CCCC(C)NC(=O)Cc1ccccc1 (stereo not given) | 30 µg/mL (≈ 146 µM)
CCOc1ccc2c(c1)C(=O)C(=O)N2CC1COc2ccccc2O1 (stereo not given) | 1.2 µg/mL (≈ 3.54 µM)
O=C(Nc1ncccn1)c1cccc(Cl)c1 | 23.6 µg/mL (≈ 101 µM)

SMILES | solubility kinetic
S=C(Nc1ccc(Cl)c(Cl)c1)N1CCN(c2ccccn2)CC1 | 0.9 µg/mL (≈ 2.45 µM)
COc1ccccc1CN(C)C(=O)COC(=O)c1cc(C)oc1C | > 49.7 µg/mL
COc1ccccc1OCCNC(=O)C(c1ccccc1)c1ccccc1 | 2.2 µg/mL (≈ 6.09 µM)
COc1ccc(NC(=O)Nc2cccc(C)n2)c(OC)c1 | < 0.2 µg/mL
N=C(N)c1ccccc1 | > 18 µg/mL
COc1cccc(C2(O)CCN(CC(=O)NCC3CC3)CC2)c1 | > 47.8 µg/mL
CC1CCc2c(sc(NC(=O)c3ccco3)c2C(=O)O)C1 (stereo not given) | > 45.8 µg/mL
COc1cc(OC)cc(C(=O)NCCCn2ccnc2)c1 | > 43.4 µg/mL
S=C(Nc1ccc(Cl)cc1Cl)N1CCN(c2ccccn2)CC1 | 1 µg/mL (≈ 2.72 µM)
CCC(C)c1ccc(NC(=O)COC(=O)C2CCCC2)cc1 (stereo not given) | 8.8 µg/mL (≈ 29 µM)
COc1ccc(C(=O)OCC(=O)NC(=O)Nc2ccccc2F)c(OC)c1 | 2.4 µg/mL (≈ 6.38 µM)
O=C(O)C1CC=CCC1C(=O)NCCCN1CCCC1=O (stereo not given) | > 44.2 µg/mL
O=C(CC(NC(=O)c1ccccc1)c1ccccc1)NCc1ccccc1 (stereo not given) | 4.1 µg/mL (≈ 11.4 µM)
CCC(OC(=O)c1nsc(Cl)c1Cl)C(=O)NCCOC (stereo not given) | > 51.2 µg/mL
C[C@@H](C(=O)Nc1nccs1)N1C(=O)C2CC=CCC2C1=O (stereo not given in full) | 42.8 µg/mL (≈ 140 µM)
O=C(Nc1ccncc1)c1cc(S(=O)(=O)N2CCCC2)ccc1Cl | > 54.9 µg/mL
CCN(CC)c1nc2c(c(=O)[nH]c(=O)n2C)n1Cc1ccccc1 | 30.5 µg/mL (≈ 93.2 µM)
O=C1OC2(O)C3C4C=CC(C4)C3C(=O)N2c2ccccc21 (stereo not given) | > 42.5 µg/mL
O=C(COc1ccccc1)N1CCN(c2ncccn2)CC1 | > 44.8 µg/mL
COc1ccc(NC(=O)COC(=O)CC2CCCC2)cc1 | > 43.7 µg/mL
